# Results published in patent US7981939B2, “Application of 2-bromide-isovanillin for the manufacture of a medicament for anti-cancer or/and radiation/chemotherapy sensitization” (Institute of Radiation Medicine, Academy of Military …, priority 2005, dated 2011).
# Experiments:
# c-myc protein = c-myc protein expression by Western immunoblotting, HeLa; assay type: cell-based, human; conditions: 40 μmol/L, 0-24 hrs, decrease more remarkable with time
# Experimental: The expression level of c-myc protein in human cervical cancer cell line HeLa treated with 2-bromo-isovanillin was determined by Western immunoblotting. In the Western blotting, the mouse anti-human c-myc protein monoclonal antibody SC-40 (purchased from Santa Cruz) was used as the primary antibody, and the goat anti-mouse antibody IgG-HRP (purchased from Zhongshan Reagent Co.) was used as the secondary antibody. Total proteins from human cervical cancer cells HeLa treated with 40 μmol/L 2-bromo-isovanillin for 0, 4, 8, 12, 24 hrs were extracted according to conventional methods, quantified and subjected to SDS-PAGE electrophoresis, followed by transferring to a membrane and immunoblotting, using β-actin as control.
# [1] = system: prostate cancer cell line IB-4; test: G2/M arrest by flow cytometry, IB-4; assay type: cell-based; conditions: IB-4, 40 μmol/L, 24 hrs
# Experimental: (§1) By way of example, human liver cancer cell lines HepG2 and 7402, human ovarian cancer cell lines HOC8 and A2780, human glioma cell line BT325, lung cancer cell line A549, brain metastatic lung cancer cell line BT72 and prostate cancer cell line IB-4 were used to investigate the G2/M arresting of solid tumor cells of different tissue origins by 2-bromo-isovanillin as measured by the ratio of cells at G2/M phase. Specifically, the cancer cells were divided into two groups, and were treated with 0 or 40 μmol/L 2-bromo-isovanillin for 24 hours. Then the cells were harvested and analyzed for changes in cell cycle and cell apoptosis by flow cytometry.
# [2] = system: human cervical cancer cell line HeLa; test: Radiosensitizing activity with 2 Gy Co-60 γ radiation, HeLa, MTT assay; assay type: cell-based
# Experimental: By way of example, human cervical cancer cell line HeLa was used to determine the radiosensitizing activity of 2-bromo-isovanillin.
# Specifically, human cervical cancer cells HeLa were divided into six groups, diluted as appropriate, and plated into Petri dishes with a diameter of […]. The amount of cells plated in each Petri dish was 300/500 for 0 Gy group (without Co-60 γ radiation), or 400/800 for 2 Gy group. Once adherence was achieved, three groups were treated with 20 μmol/L 2-bromo-isovanillin (BVAN3208) for 0, 4 and 18 hrs, respectively and then irradiated with Co-60 γ ray at 2 Gy, followed by two weeks under conventional culturing conditions. As to the other three groups, one group was treated with 20 μmol/L 2-bromo-isovanillin (BVAN3208) for 72 hrs and then cultured for two weeks under conventional conditions, one group received irradiation with Co-60 γ ray at 2 Gy and then was cultured for two weeks under conventional conditions, and the remaining group as control received no treatment at all and was cultured for two weeks under conventional conditions. 48 hrs after irradiation with Co-60 γ ray, using MTT assay, the optical density (OD) values at 490 nm were measured and recorded, wherein the magnitude of OD value is indicative of cell number, i.e., cell proliferation. The results are shown in FIG. 5, wherein C represents the control group, R(2 Gy) represents the group treated with Co-60 γ ray alone, BVAN3208 represents the group treated with 20 μmol/L 2-bromo-isovanillin alone, and BVAN3208/0 h R, BVAN3208/4 h R and BVAN3208/18 h R respectively represent the groups treated with 20 μmol/L 2-bromo-isovanillin for 0, 4, 18 hrs before irradiation with Co-60 γ ray. The survival rates of the cancer cells treated with 2 Gy Co-60 γ ray radiation or 20 μmol/L 2-bromo-isovanillin for 72 hrs were 76% and 70%, respectively.
# [3] = system: leukemia cell line Jurkat; test: Apoptosis in Jurkat cells (Hoechst 33258/FDA staining, DNA gel electrophoresis, flow cytometry); assay type: cell-based, human
# Experimental: (§2) Human cervical cancer cell line HeLa, human liver cancer cell line HepG2/7221/7402, human ovarian cancer cell line HOC8/A2780, human glioma cell line BT325, lung cancer cell line A549, brain metastatic lung cancer cell line BT72 and normal human hepatic cell line LO2 were all grown in DMEM liquid medium supplemented with 10% newborn calf serum. Human leukemia cell line Jurkat was grown in 1640 medium supplemented with 10% newborn calf serum. The above cell lines were cultured in a CO2 incubator at 5% CO2 at 37° C.
# 3. Using the same procedure as described under items 1 and 2, the leukemia cells Jurkat were diluted, and plated into Petri dishes with a diameter of […], the amount of the cells adjusted depending on the concentration of 2-bromo-isovanillin to be added. Once adherence was achieved, the cells received dosages of 0, 10, 20, 30 and 40 μmol/L in triplicates. After 24 hrs of continuous action, the medium was replaced by a drug-free 1640 medium supplemented with 10% newborn calf serum. The cells were cultured for a total of 2 weeks. At the end of the culturing period, the cells were subjected to Hoechst 33258 and FDA double fluorescence staining and the results were plotted as an apoptosis curve, as shown in FIG. 4A.
# [4] = system: human liver cancer cell line HepG2; test: G2/M arrest and apoptosis by flow cytometry, HepG2; assay type: cell-based; conditions: HepG2, 40 μmol/L
# Experimental: as §1
# 2. In a separate experiment, the cell cycle profile and apoptosis rate of human liver cancer cell line HepG2 treated with 40 μmol/L 2-bromo-isovanillin for different periods of time (0-50 h) were studied, and the results are shown in FIGS. 7A and 7B (1, 2, 3, 4 respectively represent the apoptosis results for treatment with 40 μmol/L 2-bromo-isovanillin for 0, 8, 16, 24 hrs).
# [5] = system: human liver cancer cell line 7402; test: G2/M arrest by flow cytometry, 7402; assay type: cell-based; conditions: 7402, 40 μmol/L, 24 hrs
# Experimental: as §1
# [6] = system: lung cancer cell line A549; test: Clonogenic assay, 6 days of continuous action, A549; assay type: cell-based
# Experimental: as §2
# By way of example, human cervical cancer cell line HeLa, lung cancer cell line A549, and ovarian cancer cell lines A2780 and HOC8 were used to determine the killing of cancer cells by 2-bromo-isovanillin for 6 days. Specifically, four groups were formed according to the type of the cancer cells. The cancer cells were diluted as appropriate, and were respectively plated into Petri dishes with a diameter of […], the amount of the cells adjusted depending on the concentration of 2-bromo-isovanillin to be added. Once adherence was achieved, each cell type received dosages of 0, 5, 10, 15, 20, 25, 30 and 35 μmol/L in triplicates. After 6 days of continuous action, the medium was replaced by a drug-free DMEM liquid medium. […] Then the cell clones were counted. The experimental data were expressed as the mean of 2-4 experiments and were plotted as a growth curve of cancer cells.
structure (smiles),measurement,setting,value
"COc1ccc(C=O)c(Br)c1O [2-bromo-isovanillin, 2-bromo-3-hydroxy-4-methoxybenzaldehyde]",expression level of c-myc protein,c-myc protein,decreased
same,cell cycle effect,[1],arrested at G2/M phase
same,survival rate,"[2]; 20 μmol/L for 72 hrs alone, no radiation",70%
same,cell survival rate,"[2]; 20 μmol/L, 2 Gy radiation 4 hrs after administration",about 51%
same,cell survival rate,"[2]; 20 μmol/L, 2 Gy radiation 18 hrs after administration",~21%
same,cell survival rate,"[2]; 20 μmol/L, 2 Gy radiation immediately (0 h) after administration",about 51%
same,sensitization ratio,"[2]; 20 μmol/L, pretreatment 18 hrs prior to 2 Gy radiation",3.32
same,apoptosis in Jurkat (flow cytometry),"[3]; 0, 20, 30 μmol/L, 24 hrs",significantly induced apoptosis
same,DNA gel electrophoresis finding,"[3]; Jurkat, 20, 30, 40 μmol/L, 2% agarose gel",DNA fragmentation bands characteristic of apoptosis
same,dose inducing necrosis or M phase catastrophic death,"[3]; Jurkat, 24 hrs, Hoechst 33258 and FDA double fluorescence staining",≥ 40 µmol/L
same,treatment time after which obvious G2/M arrest began to appear,[4],4 h
same,treatment time of peak G2/M arrest,[4],8 to 16 h
same,cell cycle effect,[4]; 24 hrs,arrested at G2/M phase
same,cell apoptosis,[4]; after 8 hrs of treatment,significantly increased
same,cells at G0/G1 phase,[4]; at the time of G2/M arrest,significantly decreased
same,cell cycle effect,[5],arrested at G2/M phase
same,survival rate,"[6]; A549, 20 μmol/L",lower than 10%
same,proliferation,"[6]; A549, 30 μmol/L",completely inhibited
